According to the NIST ThermoML archive (doi:10.1016/j.jct.2016.07.037):
Numbers after ± are expanded uncertainties.

What was measured:
[1] = molar heat capacity at constant pressure; details: 298.15 K; 101.33 kPa; Crystal; Drop calorimetry
[2] = molar enthalpy of vaporization or sublimation; details: 298.15 K; Crystal; Static calorimetry
[3] = Molar enthalpy of transition or fusion; details: Crystal; DSC
[4] = Crystal; for vapor or sublimation pressure: Calculated from knudsen effusion weight loss; for Normal melting temperature: DTA

## OCC(F)(F)C(F)(F)C(F)(F)C(F)(F)C(F)(F)C(F)(F)C(F)(F)C(F)(F)C(F)(F)C(F)(F)F [1H,1H-perfluoroundecan-1-ol]
[1]
  molar heat capacity at constant pressure: 602.4 ± 14 J/K/mol

## OCC(F)(F)C(F)(F)C(F)(F)C(F)(F)C(F)(F)C(F)(F)C(F)(F)C(F)(F)C(F)(F)C(F)(F)C(F)(F)F [1H,1H-perfluoro-1-dodecanol]
[2]
  molar enthalpy: 26.4 ± 0.86 kcal/mol
[1]
  molar heat capacity at constant pressure: 645.2 ± 15 J/K/mol
[3]
  Molar enthalpy of transition or fusion: 5.88 ± 0.311 kcal/mol
[4]; 303.6 K
  vapor or sublimation pressure: 6.95e-05 ± 2e-05 kPa
[4]; 306.1 K
  vapor or sublimation pressure: 0.0001 ± 2e-05 kPa
[4]; 308.6 K
  vapor or sublimation pressure: 0.000143 ± 2.1e-05 kPa
[4]; 311 K
  vapor or sublimation pressure: 0.000196 ± 2.1e-05 kPa
[4]; 313.5 K
  vapor or sublimation pressure: 0.000273 ± 2.2e-05 kPa
[4]; 316 K
  vapor or sublimation pressure: 0.000376 ± 2.4e-05 kPa
[4]; 318.5 K
  vapor or sublimation pressure: 0.000517 ± 2.7e-05 kPa
[4]; 321 K
  vapor or sublimation pressure: 0.000727 ± 3.3e-05 kPa
[4]; 323.5 K
  vapor or sublimation pressure: 0.001007 ± 7.8e-05 kPa
[4]
  Normal melting temperature: 114.2 ± 1.3 °C

## OCC(F)(F)C(F)(F)C(F)(F)C(F)(F)C(F)(F)C(F)(F)C(F)(F)C(F)(F)F [2,2,3,3,4,4,5,5,6,6,7,7,8,8,9,9,9-heptadecafluoro-1-nonanol]
[1]
  molar heat capacity at constant pressure: 515.9 ± 12 J/K/mol

## OCC(F)(F)C(F)(F)C(F)(F)C(F)(F)C(F)(F)C(F)(F)C(F)(F)C(F)(F)C(F)(F)C(F)(F)C(F)(F)C(F)(F)C(F)(F)F
[2]
  molar enthalpy: 30.2 ± 0.932 kcal/mol
[1]
  molar heat capacity at constant pressure: 725.3 ± 17 J/K/mol
[3]
  Molar enthalpy of transition or fusion: 9.08 ± 0.454 kcal/mol
[4]; 328.6 K
  vapor or sublimation pressure: 0.00014 ± 2.1e-05 kPa
[4]; 330.6 K
  vapor or sublimation pressure: 0.000172 ± 2.1e-05 kPa
[4]; 332.5 K
  vapor or sublimation pressure: 0.000231 ± 2.2e-05 kPa
[4]; 334.5 K
  vapor or sublimation pressure: 0.000302 ± 2.3e-05 kPa
[4]; 336.5 K
  vapor or sublimation pressure: 0.000391 ± 2.4e-05 kPa
[4]; 338.4 K
  vapor or sublimation pressure: 0.000502 ± 2.7e-05 kPa
[4]; 340.4 K
  vapor or sublimation pressure: 0.000642 ± 3e-05 kPa
[4]
  Normal melting temperature: 139.2 ± 0.5 °C

## OCC(F)(F)C(F)(F)C(F)(F)C(F)(F)C(F)(F)C(F)(F)C(F)(F)C(F)(F)C(F)(F)F [1H,1H-perfluoro-1-decanol]
[1]
  molar heat capacity at constant pressure: 563.9 ± 13 J/K/mol
